Counter-ions that a name gives are not always drawn.

For one experiment, the system named is SST8-5. As to the kind of experiment: Expression of SST8-5 mRNA in 3T3-L1 cell by an insulin sensitizer (TaqMan PCR). It is filed as cell-based, mouse. The conditions noted are these: 10 μM, 72 hours in differentiation medium in the presence of insulin; 36B4 mRNA internal standard. As for the experimental part: Analysis of Expression of Novel Secretory or Membrane Protein Gene by an Insulin Sensitizer 3T3-L1 cell was inoculated into 6-well plate at 4×10^5 cells/well of cell number and incubated on DMEM (Invitrogen) medium containing 10% fetal bovine serum (Invitrogen) at 37° C. for 5 days. The medium was exchanged to a differentiation medium [DMEM medium containing 250 nM dexamethasone (Sigma), 0.5 mM 1-methyl-3-isobutyl xanthine (Wako Pure Chemical Industries, Ltd.), 10 μg/ml insulin (Sigma) and 10% fetal bovine serum]. In exchanging the medium to the differentiation medium, pioglitazone hydrochloride (10 μM, Takeda Pharmaceutical Company, Ltd.) which is an insulin sensitizer was added to the medium, and incubated for 72 hours in the presence of insulin. After completing incubation, the medium was washed with PBS (Invitrogen), and the cells were collected. Total RNA was gathered from the collected cells using RNAeasy kit (Qiagen) according to the instructions attached to the kit. Using the gathered total RNA, expression amounts of SST8-5 and mRNA of 36B4 which is used as internal standard were quantified by TaqMan PCR (Applied Biosystems). As a result, the expression amount of SST8-5 increased 2.4-fold by addition of pioglitazone hydrochloride as compared with control (pioglitazone hydrochloride free).
(In general: Quantitative PCR measures a nucleic acid by following its amplification.)

A further experiment has as its system SST20-14. Nature of the experiment: Expression of SST20-14 mRNA in 3T3-L1 cell by insulin resistance inducing factor (TaqMan PCR). It is filed as cell-based, mouse. Here is the method:
Analysis of Expression of Novel Secretory or Membrane Protein Gene by Insulin Resistance Inducing Factor
3T3-L1 cell was inoculated into 6-well plate at 4×10^5 cells/well of cell number and incubated on DMEM (Invitrogen) medium containing 10% fetal bovine serum (Invitrogen) at 37° C. for 5 days. The medium was exchanged to a differentiation medium [DMEM medium containing 250 nM dexamethasone (Sigma), 0.5 mM 1-methyl-3-isobutyl xanthine (Wako Pure Chemical Industries, Ltd.), 10 μg/ml insulin (Sigma) and 10% fetal bovine serum] and further incubated for 24 hours. In exchanging the medium to the differentiation medium, each of TNF-α (Genzyme Techne) at the concentration of 1 nM, 100 pM and 10 pM was added to the medium at the same time. After completing incubation, the medium was washed with PBS (Invitrogen), and the cells were collected. Total RNA was gathered from the collected cells using RNAeasy kit (Qiagen) according to the instructions attached to the kit. Using the gathered total RNA, expression amounts of SST20-14 and mRNA of 36B4 which is used as internal standard were quantified by TaqMan PCR (Applied Biosystems).

In a further experiment the test system is 3T3-L1 cell. Nature of the experiment: Differentiation of preadipocyte strain 3T3-L1 into mature adipocyte (oil red-O staining of lipid drop accumulation). It is filed as cell-based. The conditions noted are these: 3T3-L1 cell overexpressing SST20-14 (pCMV-SST20-14, Long form cDNA); differentiation medium 72 hours then 8 days; qualitative, microscopic observation. As for the experimental part: Analysis of Action for Differentiation of Preadipocyte Strain 3T3-L1 into Mature Adipocyte
3T3-L1 cell was inoculated into 6-well plate at 2×10^5 cells/well of cell number, and incubated on DMEM (Invitrogen) medium containing 10% fetal bovine serum (Invitrogen) at 37° C. for 7 days, incubation solution was suctioned, and the well was washed twice with PBS (Invitrogen), and then 2 ml/well of OPTI-MEM (Invitrogen) was added thereto. OPTI-MEM (100 μl) and FuGENE™6 (10 μl, Roche) were mixed and stood still at room temperature for 5 minutes. Thereto was added […] of construct for expression pCMV-SST20-14 prepared by inserting SST20-14 (Long form) cDNA into EcoRI-HindIII cloning site of pCMV-Tag4A (Sigma) which is an expression plasmid, and the mixed solution was stood still at room temperature for 45 minutes. The solution containing the expression construct was added to the above-mentioned 3T3-L1 cell, and incubated at 37° C. for 6 hours, and then incubated on DMEM medium containing 10% fetal bovine serum at 37° C. for 40 hours. Then, the medium was exchanged to a differentiation medium [DMEM medium containing 250 nM dexamethasone (Sigma), 0.5 mM 1-methyl-3-isobutyl xanthine (Wako Pure Chemical Industries, Ltd.), 10 μg/ml insulin (Sigma) and 10% fetal bovine serum] and incubated for 72 hours. […]

Turning to `CCc1ccc(CCOc2ccc(CC3SC(=O)NC3=O)cc2)nc1` (stereo not shown) [pioglitazone hydrochloride], the “increase of expression amount of SST8-5 as compared with control (pioglitazone hydrochloride free)” value in the experiment on SST8-5 came out at 2.4 fold.

As to TNF-α, in the experiment with SST20-14 (1 nM TNF-α for 24 hours in differentiation medium, 36B4 mRNA internal standard), the “reduction of expression amount of SST20-14 as compared with control (TNF-α free)” value is “about 70%”. Also, the “change of expression amount of SST20-14 with TNF-α concentration” value in the experiment with SST20-14 (TNF-α 1 nM, 100 pM and 10 pM, 24 hours in differentiation medium) is recorded as “changed depending on added TNF-α concentration”.

B1: SST20-14: mouse white adipose tissue-derived secretory or membrane protein, SEQ ID NO: 2; overexpressed from pCMV-SST20-14 construct (protein, listed as Mus musculus)
chain: MAGSRGLPLLLLVLQLFLGPVLPVRAPVFGRSDTPTLSPEENEFVEEENQPVLVLSSEEPEPGPATVDCPRDCACSQEGVVDCGGIDLREFPGDLPEHTNHLSLQNNQLEKIYPEELSRLQRLETLNLQNNRLTSRGLPEEAFEHLTSLNYLYLANNKLTLAPRFLPNALISVDFAANYLTKIYGLTFGQKPNLRSVYLHNNKLADAGLPDHMFNGSSNVEILILSSNFLRHVPKHLPPALYKLHLKNNKLEKIPPGAFSELSNLRELYLQNNYLTDEGLDNETFWKLSSLEYLDLSSTNLSRVPAGLPRSLVLLHLEKNAIQSVEADVLTPIRNLEYLLLHSNQLQAKGIHPLAFQGLKKLHTVHLYNNALERVPSGLPRRVRTLMILHNQITGIGREDFATTYFLEELNLSYNRITSPQMHRDAFRKLRLLRSLDLSGNRLQTLPPGLPKNVHVLKVKRNELAALARGALAGMAQLRELYLTGNRLRSRALGPRAWVDLAGLQLLDIAGNQLTEVPEGLPPSLEYLYLQNNKISAVPANAFDSTPNLKGIFLRFNKLAVGSVVESAFRRLKHLQVLDIEGNFEFGNGSKDKDEEEEEEEEEEDEEEETR
Consider B1, for which the “accumulation of lipid drop as compared with control 3T3-L1 cell” value with 3T3-L1 cell is on record as “reduced to a half or less”.
